Source: US8697714B2, “Quinazolinone based fluorogenic probes” (Nanyang Technological University, priority 2010, dated 2014)

Key:
[1] = tested on: MAO activity in PC12 cells; assay: Inhibition imaging: PC12 cells pre-treated with inhibitor, then MAO-HPQ 1; assay type: cell-based, Rattus norvegicus; conditions: 100 μM inhibitor pre-treatment, then 100 μM MAO-HPQ 1, 37° C., 1 h
Protocol: In the inhibition investigation, the live PC12 cell lines were washed twice with DMEM and pre-treated separately with 100 μM Clorgyline and Pargyline in DMEM for 1 hour in an incubator at 37° C. MAO-HPQ 1 was then added to the μ-dish with the final concentration of 100 μM and incubated for another 1 hour at 37° C. The cells were then washed twice with Hank's Balanced Salt solution. The fluorescence imaging was acquired with the Confocal fluorescence microscope.
Further imaging investigations were conducted by utilizing two commonly used inhibitors: Clorgyline for MAO A and Pargyline for MAO B. The PC12 cells were pre-treated separately with 100 μM of MAO A inhibitor clorgyline and MAO B inhibitor pargyline, and then incubated with 100 μM of MAO-HPQ probe 1 at 37° C. for 1 h. […] This is in accordance with the in vitro enzyme inhibition tests (FIG. 5). MAO-HPQ 1 indicates less toxicity (FIG. 6) and thereby can be used as a new probe for real-time imaging of MAO activity in living cells.

[2] = Stability of substrates in aqueous solutions; assay type: physicochemical; conditions: before MAO enzymatic oxidation
Text: (§1) The activity of these three probes (MAO-HPQ 1˜3) towards both MAO isozymes were investigated by in vitro fluorescent measurements. All the MAO substrates 1, 2, and 3 were very stable in aqueous solutions and were almost non-fluorescent before MAO enzymatic oxidation due to the alkylation of the 2′-hydroxyl group in the 2-(2′-hydroxy-5′-chlorophenyl)-6-chloro-4(3H)-quinazolinone fluorophore.

[3] = tested on: PC12 cell line; assay: Cell viability, standard MTT assay; assay type: cell-based, Rattus norvegicus; conditions: FIG. 6
Protocol: FIG. 6 illustrates the cell viability of substrate MAO-HPQ 1 (2-(5′-chloro-2′-(3-aminopropoxy)phenyl)-6-chloro-4(3H)-quinazolinone) and 2-(2′-hydroxy-5′-chlorophenyl)-6-chloro-4(3H)-quinazolinone (indicated as HPQ″) in PC12 cell line. As a Control, cells were treated with 5% of DMSO only.
the cytotoxicity activity of MAO-HPQ 1 was evaluated by the standard MTT assay as previously described in Y. H. Choi et al, J. Control. Rel., 1998, 54, 39-48. MAO-HPQ 1 indicates less toxicity and thereby can be used as a probe for real-time imaging of MAO activity in living cells (FIG. 6).

[4] = target: T1, monoamine oxidase A (Homo sapiens, UniProt P21397); assay: Fluorescent enhancement of MAO substrates after incubation with MAO A; assay type: biochemical; conditions: MAO A 10 μg/ml, substrate 200 μM, 37° C., 2 hours, emission 530 nm
T1 construct: purchased Sigma Aldrich
T1 sequence (P21397 1-527): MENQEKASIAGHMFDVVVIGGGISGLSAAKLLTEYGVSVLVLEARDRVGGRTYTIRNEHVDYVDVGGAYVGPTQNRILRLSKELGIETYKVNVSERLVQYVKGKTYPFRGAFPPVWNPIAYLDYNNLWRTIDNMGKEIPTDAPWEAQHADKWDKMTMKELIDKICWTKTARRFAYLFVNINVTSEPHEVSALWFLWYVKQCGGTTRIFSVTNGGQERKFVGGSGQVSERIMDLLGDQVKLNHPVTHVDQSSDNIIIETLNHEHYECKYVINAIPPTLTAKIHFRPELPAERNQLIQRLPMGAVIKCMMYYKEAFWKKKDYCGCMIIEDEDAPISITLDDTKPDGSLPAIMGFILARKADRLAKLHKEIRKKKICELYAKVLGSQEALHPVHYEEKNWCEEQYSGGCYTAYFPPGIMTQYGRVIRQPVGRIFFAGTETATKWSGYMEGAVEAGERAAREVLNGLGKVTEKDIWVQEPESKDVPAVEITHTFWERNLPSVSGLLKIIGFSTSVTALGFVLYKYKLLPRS
Protocol: (§2) Activity of fluorogenic MAO-HPQ 1, 2 and 3 were determined by the fluorescence intensity after incubations separately with monoamine oxidase A or B at 37° C. for 2 hours. Typically, 5 μl of MAO A and B enzyme solution (final concentration of 10 μg/ml) was incubated with MAO substrates 1, 2 and 3 (final concentration of 200 μM) in a 100 mM Tris-HCl buffer, pH 7.90, 5% glycerol and 5% DMSO. After 2 hours of incubation, the fluorescent enhancement was monitored by Fluorescence spectrophotometer with excitation wavelength at 360 nm.
as §1
(§3) The ratio of fluorescent intensity in the presence and absence of MAO enzymes were used to estimate MAO activities.

[5] = target: T2, monoamine oxidase B (Homo sapiens, UniProt P27338); assay: Fluorescent enhancement of MAO substrates after incubation with MAO B; assay type: biochemical; conditions: MAO B 10 μg/ml, substrate 200 μM, 37° C., 2 hours, emission 530 nm
T2 construct: purchased Sigma Aldrich
T2 sequence (P27338 1-520): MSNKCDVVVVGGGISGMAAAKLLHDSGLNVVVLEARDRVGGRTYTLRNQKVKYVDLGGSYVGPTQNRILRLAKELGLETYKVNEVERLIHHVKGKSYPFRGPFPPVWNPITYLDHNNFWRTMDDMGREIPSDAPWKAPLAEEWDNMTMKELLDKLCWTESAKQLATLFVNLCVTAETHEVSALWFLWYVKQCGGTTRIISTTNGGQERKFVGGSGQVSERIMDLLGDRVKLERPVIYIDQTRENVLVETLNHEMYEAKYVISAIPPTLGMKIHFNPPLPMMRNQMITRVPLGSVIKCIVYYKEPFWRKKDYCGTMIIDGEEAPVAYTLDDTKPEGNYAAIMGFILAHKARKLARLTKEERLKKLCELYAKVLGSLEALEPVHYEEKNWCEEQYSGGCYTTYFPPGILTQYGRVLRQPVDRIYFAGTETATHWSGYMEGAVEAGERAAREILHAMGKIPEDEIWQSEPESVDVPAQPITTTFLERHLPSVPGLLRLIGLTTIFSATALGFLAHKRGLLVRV
Protocol: as §2, §1, §3

[6] = tested on: C6 glioma cells; assay: Imaging in living C6 glioma cells (negative control, no MAO expression); assay type: cell-based; conditions: 100 μM, 37° C., 1 h
Protocol: (§4) PC12 cell (Rattus norvegicus, adrenal gland) was bought from American Type Culture Collection (ATCC Cat No: CR-1721) and maintained in F-12K medium (ATCC, Manassas Va.) containing 10% FBS (Invitrogen, Burlington, Canada). PC12 cell line were seeded at a density of 2×10^5 in a 35 mm diameter μ-dish plastic bottom (ibidi GmbH, Germany) and cultured for 2 days with Nerve Growth Factor (2.5S, 30 ng/mL, Invitrogen, Carlsbad, Calif.)^[2] in Dulbecco's Modified Eagle Medium (DMEM 1×, without phenol red, Gibco/Invitrogen, Carlsbad, Calif.) containing 4.5 g/L D-glucose, 2 mM GlutaMax-1 (Invitrogen). Control C6 glioma cell line was bought from American Type Culture Collection (ATCC Cat No.: CCL-107) and cultured with the same protocol as PC12 cell lines). After 2 days of culture, the live PC12 and C6 glioma cell lines were washed twice with DMEM. The live cells were then treated separately with 100 μM of MAO-HPQ 1 in DMEM (containing 0.5% of DMSO) and incubated for 1 hour in an incubator at 37° C. The cells were washed twice with Hank's Balanced Salt solution (Sigma). The fluorescence imaging was acquired with a Confocal fluorescence microscope (Nikon, Eclipse TE2000-E) using a super high pressure mercury lamp (Nikon, TE2-PS100W) with excitation filter: 360/40 nm; emission filter: 535/40 nm.
(§5) PC12 cell line was chosen owing to its high expression of MAO. […]

[7] = tested on: MAO activity in PC12 cells; assay: Imaging of MAO activity in living PC12 cells; assay type: cell-based, Rattus norvegicus; conditions: 100 μM, 37° C., 1 h
Protocol: as §4, §5

| SMILES | fluorescence of PC12 cells pre-treated with inhibitor (MAO inhibition in living cells) [1] | stability in aqueous solutions [2] | cytotoxicity activity (MTT) [3] | maximum fluorescent enhancement (ratio of fluorescent intensity in the presence and absence of MAO enzyme) [4] [fold] | maximum fluorescent enhancement (ratio of fluorescent intensity in the presence and absence of MAO enzyme) [5] [fold] | fluorescence in live cell imaging [6] | fluorescence in live cell imaging [7] |
| --- | --- | --- | --- | --- | --- | --- | --- |
| C#CCN(C)CCCOc1ccc(Cl)cc1Cl [clorgyline, Clorgyline] | no obvious fluorescence |  |  |  |  |  |  |
| NCCCOc1ccc(Cl)cc1-c1nc2ccc(Cl)cc2c(=O)[nH]1 [MAO-HPQ 1, 2-(5′-chloro-2′-(3-aminopropoxy)phenyl)-6-chloro-4(3H)-quinazolinone] |  | very stable | less toxicity | 307 | 300 | little | bright fluorescence signals |
| C#CCN(C)Cc1ccccc1 [pargyline, Pargyline] | strong fluorescence similar to the imaging result without inhibitor treatment |  |  |  |  |  |  |
| CNCCCOc1ccc(Cl)cc1-c1nc2ccc(Cl)cc2c(=O)[nH]1 [MAO-HPQ 2, 2-(5′-chloro-2′-(3-(N-methylamino)propoxy)phenyl)-6-chloro-4(3H)-quinazolinone] |  | very stable |  | 15 | 20 |  |  |
| CN(C)CCCOc1ccc(Cl)cc1-c1nc2ccc(Cl)cc2c(=O)[nH]1 [MAO-HPQ 3, 2-(5′-chloro-2′-(3-(N,N′-dimethylamino)propoxy)phenyl)-6-chloro-4(3H)-quinazolinone] |  | very stable |  | 5 | 7 |  |  |
